Data taken from paper PMC6015500 (ACS combinatorial science, 2015).
Like-named read-outs stand apart in the source and are kept apart here.

Tests used:
[1] = system: HCV-Luc (recombinant HCV carrying the Renilla luciferase reporter); test: HCV-Luc infection assay; format: cell-based, hepatitis C virus (HCV)
Huh7.5.1 cells = test: in vitro; format: cell-based
[2] = system: HCV replicon cell line of genotype 1b; test: HCV subgenomic replicon assay, genotype 1b; format: cell-based, hepatitis C virus (HCV); conditions: tested at 10 µM; % of DMSO control
VSVpp = format: cell-based
[3] = system: transient genotype 1a subgenomic replicon in Huh7.5.1 cells; test: Transient genotype 1a replicon assay; format: cell-based, hepatitis C virus (HCV); conditions: tested at 10 µM; % of DMSO control
[4] = system: HCV pseudoparticle (HCVpp) GT 1a; test: HCVpp entry assay, genotype 1a; format: cell-based, hepatitis C virus (HCV); conditions: tested at 10 µM; % of DMSO control
[5] = system: wild-type HCV (HCVcc, genotype 2a); test: HCVcc wild-type infection assay; format: cell-based, hepatitis C virus (HCV); conditions: Huh7.5.1 cells, compounds at 10 µM, 48 h, quantitative real-time PCR
[6] = In vitro microsomal stability; format: in vitro ADME; conditions: CD-1, mouse, liver microsomes
in vitro [7] = format: cell-based; conditions: human
[8] = Double-sink PAMPA permeability; format: in vitro ADME
[9] = system: HCV pseudoparticle (HCVpp) GT 1b; test: HCVpp entry assay, genotype 1b; format: cell-based, hepatitis C virus (HCV); conditions: tested at 10 µM; % of DMSO control
[10] = system: single-round infectious HCV (HCVsc); test: HCV single-cycle assay; format: cell-based, hepatitis C virus (HCV); conditions: tested at 10 µM; % of DMSO control
in vitro [11] = format: cell-based; conditions: human; remark: listed apart in the source
[12] = system: HCV replicon cell line of genotype 2a; test: HCV subgenomic replicon assay, genotype 2a; format: cell-based, hepatitis C virus (HCV); conditions: tested at 10 µM; % of DMSO control

COc1ccc(-c2ccc3oc(-c4ccc(OC)cc4)c(C#CCCO)c3c2)cc1 [2{1}]
inhibitory activity in the HCV-Luc assay [1]: low-micromolar
EC50 ([1]; read-out: HCV-Luc EC50, Huh7.5.1 cells, 48 h, Renilla luciferase signal): 980 nM
CC50 (Huh7.5.1 cells): 70900 nM

COc1ccc(-c2oc3ccc(-c4ccc5c(c4)OCO5)nc3c2C#CC2(O)CCCCC2)cc1 [10{21}, 1-((5-(Benzo[d][1,3]dioxol-5-yl)-2-(4-methoxyphenyl)furo-[3,2-b]pyridin-3-yl)ethynyl)cyclohexanol]
HCV Replicon DMSO (%) GT lb [2]: 82.1%
VSVpp DMSO (%) (VSVpp): 121%
EC50 ([1]; Huh-7.5.1, 48 h, read-out: HCV-Luc EC50): 184 nM
EC50 ([1]; Huh-7.5.1, read-out: HCV-Luc EC50): 180 nM
Selective Index (SI) ([1]; SI = CC50/EC50, Huh7.5.1 cells): >543
HCV Replicon DMSO (%) Transient la [3]: 194%
HCVpp DMSO (%) GT la [4]: 41.2%
extracellular and intracellular viral RNA levels [5]: most promising activity
half-life [6]: > 30 min
CC50 at 48 h (in vitro [7]): > 100000 nM
Papp ([8]; PAMPA): < 15.4 ×10⁻⁶ cm/s
permeability ([8]; double-sink PAMPA): moderate permeability
HCVpp DMSO (%) GT lb [9]: 78.1%
HCVsc DMSO (%) [10]: 20.0%
CC50 (in vitro [11]): 92300 nM
HCV Replicon DMSO (%) GT 2a [12]: 121%
